“Also recorded” adds a separate entry of the source.
Key:
CRP = assay: Leptin's effect on CRP secretion and expression in human hepatocytes (Western, real-time RT-PCR); assay type: cell-based
Excerpt: Human hepatocytes were isolated from donor livers. Briefly, the livers were perfused in a three-step process. A calcium-free buffer supplemented with EGTA is used to break […] junctions, which is followed by the same perfusion buffer without EGTA. Finally, a calcium-containing buffer supplemented with digestive enzymes (collagenase and DNase) was used. Following digestion, parenchymal hepatocytes were isolated by three steps of low-speed centrifugation. Cells with a viability of at least 85% were plated and cultured in hepatocytes maintenance medium (HMM) (Cambrex BioScience, Walkersville, Md.) supplemented with 10% fetal bovine serum (FBS), 0.1 μM dexamethasone, 0.1 μM insulin, and 50 μg/ml gentamicin on collagen-coated tissue culture dishes for 2-4 hours. The cells were subsequently cultured in the above medium without FBS.
Approximately 24 hours after seeded, the hepatocytes were washed with serum-free HMM supplemented with 0.1 μM dexamethasone and 0.1 μM insulin, and then cultured in the same medium for another 48 hours. Subsequently, the cells were switched to serum-free HMM supplemented with 0.1 μM dexamethasone before stimulated with leptin (NHPP) or rhIL-6 (R&D Systems, Minneapolis, Minn.) for 24 hours or 48 hours. For experiments involving PI3-kinase inhibitors, hepatocytes were pretreated with LY294002 (EMD Biosciences, Calif.) for 1 hour before hormonal stimulation.
Hepatocytes were isolated and treated as described in Example 4. Culture medium was centrifuged to remove detached cells and then heated at 95° C. for 5 minutes in SDS-sample buffer (Boston Bioproducts, Mass.). After separation on 10% SDS polyacrylamide gels, proteins were electro-transferred overnight to nitrocellulose membranes. Pre-blocked using 5% non-fat milk in PBS with 0.5% Tween 20, the membranes were incubated with appropriate primary antibody for 2 hours at room temperature, washed and incubated for 1 hour with a corresponding […] at room temperature. […]
CRP mRNA expression was measured by quantitative real-time RT-PCR. […]

recombinant human leptin = molecular target: T1, recombinant human leptin (Homo sapiens, UniProt P41159); assay: Immuno-precipitation assay of direct binding of human CRP and human leptin; conditions: leptin/CRP mixture and human serum; Western blot with anti-CRP
T1 construct: purchased AF Parlow of NHPP, Torrance, CA
Protocol: To explore a physical interaction between CRP and leptin, the direct binding of these proteins was determined by an immuno-precipitation assay. Rat CRP was purified from fresh rat serum to >95% purity employing a previously established affinity-purification protocol (20). […] The purified human- and rat-CRP proteins were pre-mixed with recombinant human and mouse leptin, respectively, before addition of antibodies specific for human- and mouse-leptin. The concentrations of CRP and leptin in the precipitation reaction were all within the physiological ranges that have been observed in humans or rats (11 & 15). In parallel experiments, recombinant leptin also was pre-mixed with human- or rat-serum to allow for direct interaction prior to immuno-precipitation. The protein precipitates obtained were subjected to Western blot assays using specific anti-CRP antibodies.

[1] = system: tyrosine phosphorylation of STAT3; assay: Leptin-induced tyrosine phosphorylation of STAT3 in HEK293 cells over-expressing OB-Rb in the presence of CRP (Western blot); assay type: cell-based, human
Protocol: (§1) To determine if the interaction between CRP and leptin dampens the cellular actions of leptin, the ability of leptin to stimulate tyrosine phosphorylation of STAT3 and PI3-kinase activity was assessed in the presence of CRP in vitro. HEK293 cells over-expressing OB-Rb were serum starved for 2 hours before addition of leptin and CRP (CHEMICON or EMD Biosciences). Leptin, in the presence or absence of CRP, was pre-incubated in μ-MEM (with additional 1 mM Ca^2+) for 30 minutes at 37° C. before being applied to the cells. After a 30-minute incubation with leptin, the cells were harvested in lysis buffer (18). The resultant protein extract was subjected to a Western blot analysis using an anti-phospho-STAT3 specific antibody (Cell Signaling, Beverly, Mass.). For studies involving primary hypothalamic neurons, the hypothalamus from rats was surgically isolated immediately after euthanasia, and placed in the DMEM for incubation with leptin in the presence or absence of CRP.

[2] = system: leptin signaling in primary hypothalamic neurons; assay: Phospho-STAT3 and PI3-kinase assays of leptin signaling in primary hypothalamic neurons; assay type: cell-based, rat
Protocol: as §1

ob/ob mice = assay: Intracerebralventricular (i.c.v.) injection of human CRP and leptin in ob/ob mice, food intake and body weight; assay type: in vivo, mouse; conditions: ob/ob mice

T1 sequence (P41159 22-167): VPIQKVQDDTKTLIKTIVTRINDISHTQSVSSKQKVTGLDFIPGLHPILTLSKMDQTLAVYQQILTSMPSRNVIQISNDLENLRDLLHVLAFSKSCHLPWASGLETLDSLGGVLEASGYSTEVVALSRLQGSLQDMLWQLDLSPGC

human leptin: human recombinant leptin
effect on CRP gene expression, short treatment (CRP; 6-8 hours): did not influence CRP gene expression
effect on secreted CRP in the culture medium (CRP; human hepatocytes, physiological leptin concentrations, 24 hours): dose-dependent positive effect
effect on human CRP mRNA expression (CRP; real-time PCR): dosage-dependent effect

human CRP: human C-reactive protein, purified preparation from a commercial source
co-precipitation of CRP with anti-human leptin antibody (recombinant human leptin): could pull down human CRP
calcium dependence of attenuation of leptin signaling ([1]; excess EGTA added to the medium): requires the presence of calcium ions
effect of CRP on human leptin-induced tyrosine phosphorylation of STAT3 ([1]; HEK293 OB-Rb): attenuating effects; also recorded: caused the reduction of leptin-stimulated STAT3 activation; also recorded: attenuate
effect of CRP on human leptin-induced tyrosine phosphorylation of STAT3 ([1]; HEK293 OB-Rb, listed as Human CRP): suppressed the activation of STAT3; also recorded: suppresses activation of STAT3
effect of CRP on murine leptin-induced tyrosine phosphorylation of STAT3 ([1]; murine/mouse leptin, HEK293 OB-Rb): does not have attenuation effect; also recorded: unable to block
effect on leptin signaling (phospho-STAT3, PI3-kinase) [2]: specifically inhibited leptin signaling
effect of i.c.v. human CRP on satiety and weight-reducing effects induced by mouse leptin (ob/ob mice): did not influence

Source: patent US20070218504A1, “HUMAN LEPTIN-DERIVED POLYPEPTIDES AND USES THEREOF” (UNIVERSITY OF PITTSBURGH, priority 2006, published 2007)
